System: patients with relapsed or refractory diffuse large B-cell lymphoma (R/R DLBCL)
Assay: Phase Ib/II study of Pola-R-Len, safety: adverse events graded per NCI CTCAE Version 4.0
Type: in vivo, human
Settings: in combination with polatuzumab vedotin 1.8 mg/kg and rituximab 375 mg/m^2; PO Days 1-21 of 28-day cycles
Description: Adverse events were assessed based on the National Cancer Institute Common Terminology Criteria for Adverse Events (NCI CTCAE; Version 4.0). Adverse events that are not specifically listed in the NCI CTCAE were graded as follows: • Grade 1: Mild; asymptomatic or mild symptoms; clinical or diagnostic observations only; or intervention not indicated. • Grade 2: Moderate; minimal, local, or non-invasive intervention indicated; or limiting age-appropriate instrumental activities of daily living. • Grade 3: Severe or medically significant, but not immediately life threatening; hospitalization or prolongation of hospitalization indicated; disabling; or limiting self-care activities of daily living. • Grade 4: Life-threatening consequences or urgent intervention indicated. • Grade 5: Death related to adverse event.
The following populations were defined: • The primary safety and efficacy populations included patients who received at least one dose of any component of the treatment combination. • The intent-to-treat population included patients enrolled in the study.

For `Nc1cccc2c1CN(C1CCC(=O)NC1=O)C2=O` (stereo not shown) [lenalidomide], the “recommended Phase II dose (RP2D)” value was 20 mg.

From patent US20240115718A1, “METHODS OF USING ANTI-CD79B IMMUNOCONJUGATES TO TREAT DIFFUSE LARGE B-CELL LYMPHOMA” (Genentech, Inc., priority 2021, published 2024)
